According to ChEMBL document CHEMBL1150655, “Tupuseleiamides and basiliskamides, new acyldipeptides and antifungal polyketides produced in culture by a Bacillus laterosporus isolate obtained from a tropical marine habitat” (J Nat Prod, 2002):
≈ marks a conversion by molar mass, not a printed value.

Columns and labels:
[1] = Cytotoxicity against human diploid fibroblast cells at 100 ug/ml; assay type: cell-based
[2] = Cytotoxicity against human diploid fibroblast cells assessed as cytopathic effect at 12.5 ug/ml; assay type: cell-based
Candida albicans = experiment: Antimicrobial activity against Candida albicans by standard agar dilution method; assay type: functional
Aspergillus fumigatus = experiment: Antimicrobial activity against Aspergillus fumigatus by standard agar dilution method; assay type: functional

MIC (Candida albicans)	MIC (Aspergillus fumigatus)	SMILES	Activity [1]	Activity [2]
		C[C@@H]1[C@H](O)[C@@H](C)/C=C/C=C/C=C/C=C/C=C/C=C/C=C/[C@H](O[C@@H]2O[C@H](C)[C@@H](O)[C@H](N)[C@@H]2O)C[C@@H]2O[C@](O)(C[C@@H](O)C[C@@H](O)[C@H](O)CC[C@@H](O)C[C@@H](O)CC(=O)O[C@H]1C)C[C@H](O)[C@H]2C(=O)O [AMPHOTERICIN B]	Toxic	Toxic
1 µg/mL (≈ 2.59 µM)	2.5 µg/mL (≈ 6.49 µM)	CC[C@@H](C)[C@H](OC(=O)/C=C/c1ccccc1)[C@H](C)[C@H](O)C/C=C/C=C\C(N)=O [BASILISKAMIDE A]		
3.1 µg/mL (≈ 8.04 µM)	5 µg/mL (≈ 13 µM)	CC[C@@H](C)[C@H](O)[C@H](C)[C@@H](C/C=C/C=C\C(N)=O)OC(=O)/C=C/c1ccccc1 [BASILISKAMIDE B]		
